This experiment addresses T1, hTAS1R1 S172A/rTAS1R3 (UniProt Q7RTX1+Q923K1, S172A).
T1 construct: UniProtKB number Q7RTX1–1); The cDNA coding region of rTAS1R3 was synthesized with optimized-codon usage for human expression; expressed in transfected cells; host or cells: HEK293T/17
T1 sequence (Q7RTX1 21-841 S172A): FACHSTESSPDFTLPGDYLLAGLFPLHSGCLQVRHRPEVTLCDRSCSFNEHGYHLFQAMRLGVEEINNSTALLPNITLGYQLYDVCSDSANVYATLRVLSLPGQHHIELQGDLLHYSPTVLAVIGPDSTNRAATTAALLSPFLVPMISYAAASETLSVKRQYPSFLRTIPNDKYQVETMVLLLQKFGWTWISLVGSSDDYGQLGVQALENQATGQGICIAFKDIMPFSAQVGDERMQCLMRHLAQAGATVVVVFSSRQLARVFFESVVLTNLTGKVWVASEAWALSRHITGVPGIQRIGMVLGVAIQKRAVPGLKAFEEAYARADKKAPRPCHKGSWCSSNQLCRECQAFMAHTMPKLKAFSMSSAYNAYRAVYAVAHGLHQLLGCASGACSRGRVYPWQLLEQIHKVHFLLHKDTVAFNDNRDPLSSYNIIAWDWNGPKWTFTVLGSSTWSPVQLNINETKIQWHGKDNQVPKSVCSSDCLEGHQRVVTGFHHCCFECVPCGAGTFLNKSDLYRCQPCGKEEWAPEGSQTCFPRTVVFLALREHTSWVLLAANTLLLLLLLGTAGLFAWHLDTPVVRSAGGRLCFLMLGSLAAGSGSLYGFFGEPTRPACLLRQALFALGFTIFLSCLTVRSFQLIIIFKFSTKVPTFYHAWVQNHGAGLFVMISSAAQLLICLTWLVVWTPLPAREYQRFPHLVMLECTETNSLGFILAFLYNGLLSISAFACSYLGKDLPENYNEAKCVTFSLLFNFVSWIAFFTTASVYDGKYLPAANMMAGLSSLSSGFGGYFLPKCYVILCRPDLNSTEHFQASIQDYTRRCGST
T1 sequence (Q923K1 21-858): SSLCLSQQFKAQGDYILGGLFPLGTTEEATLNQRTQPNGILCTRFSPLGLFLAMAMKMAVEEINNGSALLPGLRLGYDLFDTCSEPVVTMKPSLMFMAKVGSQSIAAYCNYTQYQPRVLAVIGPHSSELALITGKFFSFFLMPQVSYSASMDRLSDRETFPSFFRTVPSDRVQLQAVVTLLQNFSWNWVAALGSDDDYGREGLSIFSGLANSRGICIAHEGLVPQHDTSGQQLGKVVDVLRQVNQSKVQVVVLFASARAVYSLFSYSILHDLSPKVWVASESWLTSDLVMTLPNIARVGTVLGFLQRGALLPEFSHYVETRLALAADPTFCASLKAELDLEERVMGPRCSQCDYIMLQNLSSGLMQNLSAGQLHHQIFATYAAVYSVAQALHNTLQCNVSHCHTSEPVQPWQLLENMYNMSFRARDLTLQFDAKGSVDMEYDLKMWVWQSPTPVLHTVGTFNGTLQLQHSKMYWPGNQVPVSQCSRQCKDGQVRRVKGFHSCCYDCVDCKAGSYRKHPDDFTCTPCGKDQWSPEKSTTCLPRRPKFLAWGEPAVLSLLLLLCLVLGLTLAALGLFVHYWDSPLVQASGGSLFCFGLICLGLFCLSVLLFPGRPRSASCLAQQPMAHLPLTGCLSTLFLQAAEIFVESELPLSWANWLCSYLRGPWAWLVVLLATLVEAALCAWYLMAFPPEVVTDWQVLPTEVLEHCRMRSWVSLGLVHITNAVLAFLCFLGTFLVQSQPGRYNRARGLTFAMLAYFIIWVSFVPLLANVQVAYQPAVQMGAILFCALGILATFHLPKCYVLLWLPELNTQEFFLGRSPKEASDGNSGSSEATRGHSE
Nature of the experiment: Calcium assay, hTAS1R1 mutant co-expressed with rTAS1R3. Type of experiment: cell-based, human, rat. To be noted: for response to the agonist alone, vs WT: S172A. The source says: Chimeric Gα proteins, such as Gα16Gust44, Gα16Gi3 or Gα15i2, are widely used in the functional expression of TAS1R receptors ([Backes et al., 2015]; [Suess et al., 2015]; [Toda et al., 2021], [Toda et al., 2013], [Toda et al., 2018]; [Zhang et al., 2008]). Chimeric Gα15i2 (([Toda et al., 2013]), Supplementary data) was generated by replacing the last five residues of the C-terminal tail of rat Gα15i2 (EINLL) (UniProt number G3V6N8; https://www.uniprot.org/uniprot/) with the counterpart sequence from human GNAI2 (DCGLF) (UniProt number P04899-1) and cloning into the pcDNA3.1/Hygro vector (Invitrogen, Thermo Fisher Scientific, Illkirch, France) between the HindIII and NotI restriction sites, resulting in the plasmid pcDNA3.1-Gα15i2. Chimeric Gα16Gust44 construct have already been reported ([Raliou et al., 2011]). Briefly, Gα16Gust44 was generated by replacing the C-terminal of Gα16 with the C-terminal 44 residues of gustducin. As previously described, hTAS1R1 was amplified from human fungiform papillae cDNA and cloned and inserted into pcDNA3 (Invitrogen), generating pcDNA3-TAS1R1-WT (wild-type) ([Raliou et al., 2011]). […] The cDNA coding region of rTAS1R3 was synthesized with optimized-codon usage for human expression (Genewiz) and was cloned and inserted into the mammalian pcDNA4/myc-HisA (Invitrogen) expression vector between the EcoRI and NotI restriction sites, resulting in the plasmid pcDNA4-rTAS1R3. […] The sequence integrity of all the plasmid constructs was verified via automated DNA sequencing (Genewiz).
The hTAS1R1 mutants were co-expressed with the rTAS1R3 subunit in HEK293 cells. […] As a control, the functionality of the mutated receptors was checked after stimulation with S807 (Fig. S8), which interacts with TAS1R1-TMD ([Zhang et al., 2008]).

Molecules are shown by their SMILES. Some results are limits rather than exact numbers.

For `N[C@@H](CCC(=O)N[C@@H](CS)C(=O)NCC(=O)O)C(=O)O` [GSH, γ-L-glutamyl-L-cysteinyl-glycine], the EC50 was over 30 mM and the “response to the agonist alone, vs WT” value is listed as “fully abolished”.
As to `N[C@@H](CCC(=O)O)C(=O)O` [L-Glu, L-glutamic acid, reference compound], the “response to the agonist alone, vs WT” value is recorded as “completely suppressed”.
Take `CCCC(CCC)NC(=O)c1ccc2c(c1)OCO2` [S807, N-(heptan-4-yl)benzo[d][1,3]dioxole-5-carboxamide, reference compound]: the “response to the agonist alone, vs WT” value is listed as “strongly affected”.

The term EC50 denotes the concentration that produces a half-maximal response.

Values taken from article PMC12615753, “Glutathione as a taste modulator: molecular mechanisms of interaction with umami and sweet taste receptors” (Food Chemistry: Molecular Sciences, 2025).
